Columns and labels:
[1] = cited from earlier work
[2] = aqueous solution; cited from earlier work
[3] = Stability of 5-ALA / product; assay type: physicochemical; conditions: different storage conditions

Molecule	sensitivity to daylight after treatment [1] [days]	pH of best stability of aqueous solutions [2]	long-term stability in double chamber tube [3]
Porfimer Sodium [Photofrin]	30 to 60	–	–
NCC(=O)CCC(=O)O [5-ALA, 5-aminolevulinic acid]	1 to 2	< 6	long-term stable at different storage conditions without degradation

Reference: US10786571B2, “Hydrophilic gel for topical delivery of 5-aminolevulinic acid” (Zimmer Biotech GmbH, priority 2015, dated 2020)
